Measured values reported in patent publication US20140134730A1, “METHOD FOR INHIBITING CELL PROLIFERATION BY OXIDATIVE STRESS” (KYOWA HAKKO KIRIN CO., LTD, priority 2012, published 2014).

Tested on: SNU-16
Assay: Western blot analysis of DNA damage (H2A.X Phospho-Ser139)
Assay type: cell-based
Settings: 8 hours, KM4008HV2LV3 10 μg/mL, H2O2 50 μM
Description: Anti-phospho-Histone H2A.X Ser139, clone JBW301 (Millipore Catalog No. 05-636) as a primary antibody and anti-mouse IgG, HRP-linked antibody (CST Catalog No. 7076) as a secondary antibody were used.
SNU-16 was seeded in 10 mL of the assay medium at a density of 2×10^4 cells/mL, and cultured at 37° C. under the conditions of 5% CO2 for 24 hours. Then, KM4008HV2LV3 (final concentration of 10 μg/mL), the solvent solution of antibody, or hydrogen peroxide (H2O2) (final concentration of 50 μM) was added. The cells were left at 37° C. under the conditions of 5% CO2 for 8 hours, and the suspending cells were recovered together with the culture supernatant.
The adherent cells were washed with D-PBS(−) (manufactured by Nacalai Tesque, Catalog No. 14249-95), and then 1.5 mL of TrypLE select (manufactured by Invitrogen, Catalog No. 12563-011) was added and left at 37° C. under the conditions of 5% CO2 for 5 minutes for detachment, and then mixed with the suspending cells recovered in advance to be used in the subsequent manipulations. […]
The cell lysate thus obtained was left on ice for 15 minutes, followed by centrifugation at 15,000 rpm for 15 minutes. The protein concentration in the supernatant thus obtained was determined using a BCA protein assay kit (manufactured by Pierce, Catalog No. 23225). […]

OO [H2O2, hydrogen peroxide] was tested, and the “Phosphorylation signals of H2A.X Ser139 (Western blot) compared to solvent-treated cells” value was “increased”.
